Where two headings read alike, the source gives them in different places. Starred links: 1 amine or outer side, 2 acyl side, 3 side chain; linkers in the order of their positions; H or OH if unused. Non-standard residues stand in square brackets, D forms with d. Groups on a side chain read outwards from the residue. *: point of attachment. C20 diacid = O=C(O)CCCCCCCCCCCCCCCCCCC(=O)*; C18 diacid = O=C(O)CCCCCCCCCCCCCCCCC(=O)*; γGlu = O=C(O)[C@H](CCC(=O)[*:2])N[*:1]; εLys = N[C@@H](CCCCN[*:1])C(=O)[*:2]; AEEA = NCCOCCOCC(=O)O; Aib = CC(C)(N)C(=O)O
Columns and labels:
Assay type in all cases: cell-based
Conditions in all cases: CreLuc reporter gene assay
hGLP1R = target: T1, hGLP1R (Homo sapiens, UniProt P43220); assay: hGLP1R CreLuc reporter gene assay in 0.5% and 100% plasma
T1 construct: expressed in transfected cells; host or cells: HEK-293 cells carrying a CRE-luciferase reporter gene
T1 sequence (P43220 24-463): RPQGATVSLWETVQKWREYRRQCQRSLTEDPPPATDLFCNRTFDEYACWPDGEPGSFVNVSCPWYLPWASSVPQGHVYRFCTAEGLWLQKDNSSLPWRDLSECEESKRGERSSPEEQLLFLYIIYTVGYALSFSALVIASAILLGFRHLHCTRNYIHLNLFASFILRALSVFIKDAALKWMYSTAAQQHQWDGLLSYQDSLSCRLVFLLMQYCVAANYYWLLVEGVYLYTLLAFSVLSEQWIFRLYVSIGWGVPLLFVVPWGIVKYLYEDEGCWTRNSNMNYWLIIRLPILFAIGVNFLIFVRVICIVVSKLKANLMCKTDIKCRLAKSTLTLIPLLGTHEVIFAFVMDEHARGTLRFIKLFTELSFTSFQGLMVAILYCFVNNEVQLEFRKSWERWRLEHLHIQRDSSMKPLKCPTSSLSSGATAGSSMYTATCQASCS
Procedure, shortened: (§1)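 HEK-293 cells co-expressing GLP-1 or NPY2 receptor and CHO cells expressing GIP receptor, each carrying a CRE-driven luciferase reporter, were stimulated with peptides for 4 hours at 37 °C. Luminescence was read after Bright-Glo addition. EC50 came from 8-point, four-decade curves fitted by variable-slope non-linear regression.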

hGIPR = target: T2, hGIPR (Homo sapiens, UniProt P48546); assay: hGIPR CreLuc reporter gene assay in 0.5% and 100% plasma
T2 construct: expressed in transfected cells; host or cells: CHO cells carrying a CRE-luciferase reporter gene
T2 sequence (P48546 22-466): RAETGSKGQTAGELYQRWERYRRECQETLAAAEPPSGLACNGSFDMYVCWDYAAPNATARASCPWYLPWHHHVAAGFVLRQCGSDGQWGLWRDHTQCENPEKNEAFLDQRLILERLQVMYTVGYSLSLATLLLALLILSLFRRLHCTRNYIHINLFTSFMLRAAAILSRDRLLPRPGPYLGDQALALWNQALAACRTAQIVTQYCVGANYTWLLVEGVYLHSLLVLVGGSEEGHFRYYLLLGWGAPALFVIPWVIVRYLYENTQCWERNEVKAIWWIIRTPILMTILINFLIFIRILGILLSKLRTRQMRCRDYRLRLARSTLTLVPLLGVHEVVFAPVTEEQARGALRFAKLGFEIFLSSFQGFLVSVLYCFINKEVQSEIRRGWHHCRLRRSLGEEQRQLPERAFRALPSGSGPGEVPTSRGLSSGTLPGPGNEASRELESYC
Procedure, shortened: as §1

hNPY2R = target: T3, hNPY2R (Homo sapiens, UniProt P49146); assay: hNPY2R CreLuc reporter gene assay in 0.5% and 100% plasma
T3 construct: expressed in transfected cells; host or cells: HEK-293 cells carrying a CRE-luciferase reporter gene
T3 sequence (P49146 1-381): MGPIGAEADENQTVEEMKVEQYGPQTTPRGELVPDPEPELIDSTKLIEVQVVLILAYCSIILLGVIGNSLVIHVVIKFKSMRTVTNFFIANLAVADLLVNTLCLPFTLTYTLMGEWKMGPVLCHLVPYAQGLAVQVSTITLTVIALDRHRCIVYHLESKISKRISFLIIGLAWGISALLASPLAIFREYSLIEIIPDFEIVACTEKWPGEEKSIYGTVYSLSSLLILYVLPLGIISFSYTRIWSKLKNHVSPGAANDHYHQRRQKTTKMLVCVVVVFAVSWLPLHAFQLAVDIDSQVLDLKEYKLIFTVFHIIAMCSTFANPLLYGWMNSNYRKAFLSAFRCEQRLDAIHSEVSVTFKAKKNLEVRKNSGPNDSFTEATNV
Procedure, shortened: as §1

[1] = 0.5% human plasma, read-out: hGLP1R 0.5% hP
[2] = 100% human plasma, read-out: hGLP1R 100% hP
[3] = 0.5% human plasma, read-out: hGIPR 0.5% hP
[4] = 0.5% human plasma, read-out: hNPY2R 0.5% hP
[5] = 100% human plasma, read-out: hNPY2R 100% hP
[6] = 100% human plasma, read-out: hGIPR 100% hP

Row | Substance | EC50 (hGLP1R; [1]) [nM] | EC50 (hGLP1R; [2]) [nM] | EC50 (hGIPR; [3]) [nM] | EC50 (hNPY2R; [4]) [nM] | EC50 (hNPY2R; [5]) [nM] | EC50 (hGIPR; [6]) [nM]
1 | H-Y[Aib]EGTFTSDYSI[Aib]LEKQAQ[Aib]EFVEWLIK([AEEA-AEEA-γGlu-γGlu-γGlu-γGlu-C18 diacid])GGPSSPASLRHYYNWLTRQRY-NH2 [Compound 56, Y-Aib-E-G-T-F-T-S-D-Y-S-I-Aib-L-E-K-Q-A-Q-Aib-E-F-V-E-W-L-I-K(1,3)-GGPSSPASLRHYYNWLTRQRY-NH2.C18DA-gGlu-gGlu-gGlu-gGlu-OEG-OEG(1,2)] | 0.25 | 8.97 | 0.27 | 27.3 | 48.8 | 
2 | H-Y[Aib]EGTFTSDYSI[Aib]LEKQAQ[Aib]EFVEWLIK([AEEA-AEEA-γGlu-γGlu-γGlu-γGlu-C20 diacid])GGPSSGASLRHYYNWLTRQRY-NH2 [Compound 205, Y-Aib-E-G-T-F-T-S-D-Y-S-I-Aib-L-E-K-Q-A-Q-Aib-E-F-V-E-W-L-I-K(1,3)-GGPSSGASLRHYYNWLTRQRY-NH2.C20DA-gGlu-gGlu-gGlu-gGlu-OEG-OEG(1,2)] | 0.44 |  | 0.33 | 10.6 |  | 
3 | H-Y[Aib]EGTFTSDYSI[Aib]LEKQAQ[Aib]EFVEWLIK([γGlu-γGlu-γGlu-γGlu-γGlu-γGlu-C20 diacid])GGPSSGASLRHYYNWLTRQRY-NH2 [Compound 198, Y-Aib-E-G-T-F-T-S-D-Y-S-I-Aib-L-E-K-Q-A-Q-Aib-E-F-V-E-W-L-I-K(1,3)-GGPSSGASLRHYYNWLTRQRY-NH2.C20DA-gGlu-gGlu-gGlu-gGlu-gGlu-glu(1,2)] | 0.47 |  | 0.26 | 13.1 |  | 
4 | H-Y[Aib]EGTFTSDYSI[Aib]LEKQAQ[Aib]EFVEWLIK([εLys-γGlu-γGlu-γGlu-γGlu-γGlu-C18 diacid])GGPSSGASLRHYYNWLTRQRY-NH2 [Compound 159, Y-Aib-E-G-T-F-T-S-D-Y-S-I-Aib-L-E-K-Q-A-Q-Aib-E-F-V-E-W-L-I-K(1,3)-GGPSSGASLRHYYNWLTRQRY-NH2.C18DA-gGlu-gGlu-gGlu-gGlu-gGlu-eLys(1,2)] | 0.19 |  | 0.35 | 13.8 | 34.6 | 0.91

Continued, values first:

Row | EC50 (hGLP1R; [1]) [nM] | EC50 (hGLP1R; [2]) [nM] | EC50 (hGIPR; [3]) [nM] | EC50 (hNPY2R; [4]) [nM] | EC50 (hNPY2R; [5]) [nM] | EC50 (hGIPR; [6]) [nM] | Substance
5 | 0.5 |  | 0.27 | 19.9 |  | 1.75 | H-Y[Aib]EGTFTSDYSI[Aib]LEKQAQ[Aib]EFVEWLIK([εLys-γGlu-γGlu-γGlu-γGlu-γGlu-γGlu-C20 diacid])GGPSEGASLRHYYNWLTRQRY-NH2 [Compound 275, Y-Aib-E-G-T-F-T-S-D-Y-S-I-Aib-L-E-K-Q-A-Q-Aib-E-F-V-E-W-L-I-K(1,3)-GGPSEGASLRHYYNWLTRQRY-NH2.C20DA-gGlu-gGlu-gGlu-gGlu-gGlu-gGlu-eLys(1,2)]
6 |  | 7.18 | 0.53 |  | 45.4 | 1.58 | H-Y[Aib]EGTFTSDYSI[Aib]LEKQAQ[Aib]EFVEWLIK([εLys-γGlu-γGlu-γGlu-γGlu-γGlu-γGlu-γGlu-C20 diacid])GGPSSGASLRHYYNWLTRQRY-NH2 [Compound 88, Y-Aib-E-G-T-F-T-S-D-Y-S-I-Aib-L-E-K-Q-A-Q-Aib-E-F-V-E-W-L-I-K(1,3)-GGPSSGASLRHYYNWLTRQRY-NH2.C20DA-gGlu-gGlu-gGlu-gGlu-gGlu-gGlu-gGlu-eLys(1,2)]
7 | 0.28 |  | 0.26 | 8.03 | 26.8 | 1.57 | H-Y[Aib]EGTFTSDYSI[Aib]LEKQAQ[Aib]EFVQWLIK([AEEA-AEEA-γGlu-γGlu-γGlu-γGlu-γGlu-C20 diacid])GGPSSGASLRHYYNWLTRQRY-NH2 [Compound 36, Y-Aib-E-G-T-F-T-S-D-Y-S-I-Aib-L-E-K-Q-A-Q-Aib-E-F-V-Q-W-L-I-K(1,3)-GGPSSGASLRHYYNWLTRQRY-NH2.C20DA-gGlu-gGlu-gGlu-gGlu-gGlu-OEG-OEG(1,2)]

From US20240247080A1, “GLP1/GIP/NPY2 RECEPTOR TRIPLE AGONISTS” (Boehringer Ingelheim International GmbH, priority 2022, published 2024)
